Values quoted from earlier work as cited in patent publication US10220017B2, “Liquid pharmaceutical compositions comprising SGLT-2 inhibitors” (Boehringer Ingelheim Vetmedica GmbH, priority 2015, dated 2019).

Settings: n-octanol/water; values taken from http://www.chemicalize.org/

Row | log10P | SMILES
1 | −0.16 | CCO [ethanol]
2 | −1.84 | OCC(O)CO [propane-1,2,3-triol]
3 | −0.79 | CC(O)CO (stereo not drawn) [propane-1,2-diol]
